From patent publication US20230272077A1, “PD-1 SIGNAL INHIBITOR COMBINATION THERAPY” (KYOTO UNIVERSITY, priority 2015, published 2023) come the findings set out here.

SMILES strings stand for the structures. Entries after “also recorded” stand apart in the source; their conditions may differ.

The test system of assay [1] is AMPK and its associated proteins ACC and SIRT1. The assay is described as follows: Western blotting of DLN CD8+ T cells, AMPK pathway. The class given is in vivo, mouse. Particulars: CD8+ T cells from mice treated with PD-L1 antibody and reagent. The procedure:
FIG. 7. […] Phosphorylation of AMPK, ACC, mTOR and S6K and the expression of SIRT1 and 4EBP1 were analyzed by Western blotting. b) MC38-bearing mice were treated with PD-L1 antibody in combination with AMPK activator (A769662) and/or mTOR activator (MHY1485) according to the same schedule as shown in FIG. 3b.
CD8^+ T cells were isolated using mouse CD8 Microbeads (Miltenyi Biotec). After washing with PBS twice, 2×10^6 cells were solubilized in a lysis buffer containing 30 mM Tris-HCl (pH.7.4), 150 mM NaCl, 10% glycerol, 0.1% SDS, 1% Triton-X-100, 0.05% Na-Doc, 5 mM EDTA (pH.8.0), protease inhibitor mixture (Roche Molecular Biochemicals) and phosphatase inhibitors (Nacalai Tesque). After measurement of protein concentrations by DC protein assay (Bio-Rad), 4 μg of proteins was mounted on 4 to 20% gradient Mini-PROTEAN TGX Gels (Bio-Rad) and electroblotted onto nitrocellulose membranes, which were then incubated in a blocking buffer of TBS containing 1% BSA. Primary antibody incubations were carried out overnight at 4° C. in blocking buffer. After washing, secondary antibody incubations were carried out at room temperature for 40 min in blocking buffer. Blots were developed with enhanced chemiluminescence (Amersham Pharmacia). […]
In general terms: A western blot detects proteins with antibodies after separation by electrophoresis.

The test system of assay [2] is PGC-1α. The assay is described as follows: PGC-1α expression (Western blotting, real-time RT-PCR). The class given is in vivo, mouse. The settings on record: combination therapy together with PD-L1 antibody. The procedure: RNA was isolated from CD8^+ T cells or tumor cells with the RNeasy Mini Kit (Qiagen), followed by cDNA synthesis by reverse transcription. Real-time PCR for PGC-1α was performed using the following primers: Forward […] (SEQ ID NO: 1) and Reverse […] (SEQ ID NO: 2). To analyze the expression levels of genes associated with apoptosis and mitochondrial energy metabolism, RT2 Profiler PCR Array Gene Expression Kit PAMM-012Z or PAMM-008Z (Qiagen) was used. The list of genes included in this assay can be found in www.sabiosciences.com/Apoptosis.php.
CD8^+ T cells were isolated using mouse CD8 Microbeads (Miltenyi Biotec). After washing with PBS twice, 2×10^6 cells were solubilized in a lysis buffer containing 30 mM Tris-HCl (pH.7.4), 150 mM NaCl, 10% glycerol, 0.1% SDS, 1% Triton-X-100, 0.05% Na-Doc, 5 mM EDTA (pH.8.0), protease inhibitor mixture (Roche Molecular Biochemicals) and phosphatase inhibitors (Nacalai Tesque). After measurement of protein concentrations by DC protein assay (Bio-Rad), 4 μg of proteins was mounted on 4 to 20% gradient Mini-PROTEAN TGX Gels (Bio-Rad) and electroblotted onto nitrocellulose membranes, which were then incubated in a blocking buffer of TBS containing 1% BSA. Primary antibody incubations were carried out overnight at 4° C. in blocking buffer. After washing, secondary antibody incubations were carried out at room temperature for 40 min in blocking buffer. Blots were developed with enhanced chemiluminescence (Amersham Pharmacia). Primary antibodies recognizing the following proteins were used: Phospho-mTOR (P-mTOR) (Cat #5536), Phospho-AMPKa (P-AMPK) (#2535), Phospho-p70 S6 Kinase (P-S6K) (#9205), 4E-BP1 (#9644), Phospho-Acetyl-CoA Carboxylase (P-ACC) (#3661) and SIRT1 (#9475). All the primary antibodies were obtained from Cell Signaling Technology. An antibody recognizing PGC-1α (SC-13067) was obtained from Santa Cruz.

Assay [3] has as its system MethA. In words: Mouse therapy model, MethA-transplanted BALB/c mice (tumor volume). The class given is in vivo. The settings on record: MethA in BALB/c mice; combined with PD-L1 antibody. The procedure: (§1) MC38 (5×10^5) and MethA (5×10^5) cells were intradermally injected on the right flank. MC38 was inoculated into C57BL/6 mice and MethA was inoculated into BALB/c mice. For monotherapy, mice were intraperitoneally injected with 150 μg of PD-L1 mouse antibody (1-111A) (prepared by the laboratory of the present inventors) 5 days after the tumor inoculation. Therapy with PD-L1 antibody alone was repeated three times every 5 days. For combination therapy, administration of PD-L1 antibody and chemical agents started 7 days after tumor injection. Chemical agents were injected at a regular interval of 2 days and PD-L1 antibody at a regular interval of 5 days (shown in FIG. 3b). Tumors were measured on every alternate day, and tumor volumes were calculated using the formula for typical ellipsoid, π×(length×breadth×height/6).
(§2) The following chemical reagents were used at the indicated concentrations for combination therapy. AMPK activator: A769662, 6 mg/kg (Abcam); mTOR activator: MHY1485, 3 μg/kg (Sigma-Aldrich); uncoupler: carbonylcyanide-p-trifluoromethoxyphenylhydrazone (FCCP), 1.2 mg/kg (Abcam); uncoupler: 2,4-Dinitrophenol (DNP), 1.7 mg/kg (Aldrich); SIRT1 activator: resveratrol, 0.5 mg/kg (Abcam); ROS scavenger: Mn (III) tetrakis (4-benzoic acid) porphyrin (MnTBAP), 1.25 mg/kg (Calbiochem); ROS generator: tert-butyl hydroperoxide solution (Luperox TBH70X), 200 μL/kg (Sigma-Aldrich); ATP synthase inhibitor: oligomycin, 250 μg/kg (Sigma-Aldrich); paraquat 2 mg/kg (Nakalai Tesque); oltipraz 1.9 mg/kg (Sigma); bezafibrate 1 mg/kg (ChemCruz).
MethA cells (5×10^5) were inoculated into BALB/c mice. After 7 days, anti-PD-L1 antibody (1-111A, 80 μg) and Foxo1 inhibitor (5-amino-7-(cyclohexylamino)-1-ethyl-6-fluoro-4-oxo-1,4-dihydroquinoline-3-carboxylic acid, Calbiochem) (2 mg/kg) were administered intraperitoneally.
Fibrosarcoma MethA (Cell Resource Center for Biomedical Research) cells (5×10^5) were inoculated into BALB/c mice. After 7 days, anti-PD-L1 antibody (1-111A, 60 μg) and Aminoleban (Otsuka Pharmaceutical, 400 μl/mouse) were administered.

Assay [4] has as its system MC38. In words: Mouse therapy model, MC38-bearing mice (tumor volume, survival). The class given is in vivo. The procedure:
as §1, §2
All reagents were freshly prepared just before use. Each reagent was dissolved in the solvent indicated in the instructions. Note that the AMPK activator, mTOR activator, uncouplers and SIRT1 activator were prepared from fresh unused vials in each series of experiments. Dissolved reagents were diluted in PBS, and a 200 l aliquot was injected per mouse.
Murine colon adenocarcinoma MC38 cells (5×10^5) were inoculated into C57BL/6 mice. After 7 days, anti-PD-L1 antibody (1-111A, 150 μg) and AMPK inhibitor (Compound C: 200 μg in BBS, 200 μL) were administered intraperitoneally. Anti-PD-L1 antibody was administered 3 times at a regular interval of 6 days; Compound C (C.C) was administered 7 times at a regular interval 2 days.
MC38 cells (5×10^5) were inoculated into C57BL/6 mice. After 7 days, anti-PD-L1 antibody (1-111A, 150 μg) and PGC-1α/transcription factor complex activator (2-(4-{2-[(4-chlorobenzoyl)amino]ethyl}phenoxy)-2-methylpropanoic acid (bezafibrate): 10 ug in PBS, 200 ul) were administered intraperitoneally. Anti-PD-L1 antibody was administered 3 times at a regular interval of 6 days; bezafibrate was administered 7 times at a regular interval 2 days.

Regarding `N#CC(C#N)=NNc1ccc(OC(F)(F)F)cc1` [FCCP, carbonyl cyanide p-trifluoromethoxyphenylhydrazone], in assay [1], the “activation of AMPK and its associated proteins ACC and SIRT1” value is “activated”. Moreover, in assay [2], the “expression levels of PGC-1α protein and mRNA” value is recorded as “increased”. The “enhancement of antitumor effect of PD-L1 antibody (tumor volume)” value is on record as “enhanced the antitumor effect of PD-L1 antibody” in assay [3] and “augmented the efficacy of PD-L1 antibody therapy; also recorded: enhance the antitumor effect of PD-L1 antibody” in assay [4] (MC38-bearing mice, reagent combined with PD-L1 antibody vs PD-L1 antibody alone). For the same compound, the “antitumor effect when administered alone” value in assay [4] (MC38-bearing mice, reagent alone, no PD-L1 antibody, tumor volume) is “failed to exhibit any antitumor effect”. For the same compound, in assay [4] (mouse, in vivo), the survival rate entry was “remarkably improved the survival rate”.
